Reference: US9023789B2, “Amylin analogs and pharmaceutical compositions thereof” (Novo Nordisk A/S, priority 2012, dated 2015)
pIC50: −log10 of the molar value. Numbered stars: 1 amine (or outer) side, 2 acyl side, 3 side chain; on linkers, the order of the positions; unused ones are H or OH. Bridge positions count the residues as written; N and C are the ends. Side chains are listed from the residue outwards. Peptide text beside a SMILES is read from it. * marks the point of attachment. C20 diacid = O=C(O)CCCCCCCCCCCCCCCCCCC(=O)*; γGlu = O=C(O)[C@H](CCC(=O)[*:2])N[*:1]

What was measured:
[1] = system: Male Sprague-Dawley rats; experiment: ASSAY (XI) single subcutaneous administration, food intake monitored for 48 hours in rats; type: in vivo, rat; details: 30 nmol/kg; for Food intake red (%) 0-24 h / Food intake red (%) 24-48 h: single s.c., compared to vehicle; for food intake monitored over 48 hours: single subcutaneous administration, versus vehicle
Summary of the method: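 Male Sprague-Dawley rats from Taconic Europe, weighing about 250 g on the test day, were singly housed in an online food intake monitoring system (Ellegaard MBRose, Denmark). Before the study they were acclimatized to a reversed light cycle, with lights on from 10 PM to 10 AM. Each rat then received one subcutaneous dose of the analogue, and data are reported as mean±SEM.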

[2] = ASSAY (IX) pK, determination of T½ in mini-pig; type: in vivo; details: male, Göttingen, minipig, plasma, iv, 2 nmol/kg
[3] = molecular target: T1, human calcitonin receptor (Homo sapiens, UniProt P30988); experiment: ASSAY (VII) binding to the human calcitonin receptor (SPA, 125I-Calcitonin); details: read-out: hCTR bind IC50;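 also: cell membranes (35 ng/µL) combined with SPA beads in 40 µL of pH 7.4 Hepes buffer, 384-well format, signal counted on a TopCounter instrument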
T1 construct: expressed in transfected cells
T1 sequence (P30988 25-474): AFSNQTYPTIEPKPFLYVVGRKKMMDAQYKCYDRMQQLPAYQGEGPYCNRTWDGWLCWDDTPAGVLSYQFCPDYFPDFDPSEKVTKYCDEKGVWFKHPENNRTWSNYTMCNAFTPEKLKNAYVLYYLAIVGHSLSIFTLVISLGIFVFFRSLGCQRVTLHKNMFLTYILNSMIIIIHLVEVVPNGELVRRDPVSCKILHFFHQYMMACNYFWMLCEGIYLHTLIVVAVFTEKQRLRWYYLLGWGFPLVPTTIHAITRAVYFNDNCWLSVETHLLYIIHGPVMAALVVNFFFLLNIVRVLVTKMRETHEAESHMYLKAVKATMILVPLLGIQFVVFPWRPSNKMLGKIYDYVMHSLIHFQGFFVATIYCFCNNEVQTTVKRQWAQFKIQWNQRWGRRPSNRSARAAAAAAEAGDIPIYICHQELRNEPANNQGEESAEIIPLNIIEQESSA

[4] = system: Male Wistar rats; experiment: ASSAY (XII) effect from single subcutaneous administration on plasma calcium in rats; type: in vivo, rat; details: for Plasma calcium red (%) 0-12 h (maximal): single s.c., 30 nmol/kg, compared to vehicle
Summary of the method: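 Male Wistar rats (~250 g), groups of five, received a single subcutaneous dose at time 0. Blood drawn at −15 min, 1, 2, 4, 7, 12 and 24 h; total calcium measured in heparin plasma, reported as mean±SEM.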

[5] = ASSAY (X) pK, determination of T½ in rat; type: in vivo; details: male, Sprague Dawley, plasma, iv, 20 nmol/kg

Structure (SMILES)	Food intake red (%) 0-24 h [1]	Food intake red (%) 24-48 h [1]	food intake monitored over 48 hours [1]	half-life [2]	pIC50 [3]	Plasma calcium red (%) 0-12 h (maximal) [4]	suppression of plasma calcium level relative to vehicle ([4]; single subcutaneous administration, increasing doses (all doses tested), monitored over 24 hours)	half-life [5]
CC[C@H](C)[C@H](NC(=O)[C@H](C)NC(=O)CNC(=O)[C@H](Cc1ccccc1)NC(=O)[C@H](CC(N)=O)NC(=O)[C@@H]1CCCN1C(=O)[C@H](CO)NC(=O)[C@H](CO)NC(=O)[C@H](Cc1c[nH]cn1)NC(=O)[C@H](CCCNC(=N)N)NC(=O)[C@H](CC(C)C)NC(=O)[C@H](Cc1ccccc1)NC(=O)[C@H](CC(N)=O)NC(=O)[C@H](C)NC(=O)[C@H](CC(C)C)NC(=O)[C@H](CCCNC(=N)N)NC(=O)[C@H](CCC(N)=O)NC(=O)[C@@H](NC(=O)[C@H](C)NC(=O)[C@@H]1CSSC[C@H](NC(=O)[C@@H](N)CCCCNC(=O)CC[C@H](NC(=O)CC[C@H](NC(=O)CCCCCCCCCCCCCCCCCCC(=O)O)C(=O)O)C(=O)O)C(=O)N[C@@H](CC(N)=O)C(=O)N[C@@H]([C@@H](C)O)C(=O)N[C@@H](C)C(=O)N[C@@H]([C@@H](C)O)C(=O)N1)[C@@H](C)O)C(=O)N1CCC[C@H]1C(=O)N[C@@H](CO)C(=O)N[C@@H](CO)C(=O)N[C@H](C(=O)N[C@@H](CC(N)=O)C(=O)N[C@H](C(=O)NCC(=O)N[C@@H](Cc1c[nH]cn1)C(=O)N[C@@H](CC(N)=O)C(=O)N[C@H](C(=O)N[C@@H](Cc1ccc(O)cc1)C(N)=O)[C@@H](C)O)C(C)C)[C@@H](C)O [Example 86] (H-K([γGlu-γGlu-C20 diacid])CNTATCATQRLANFLRHSSPNFGAIPSSTNVGHNTY-NH2; disulfide 2-7)	48%	26%	reduces food intake	104 h	6.88	0%	None of the doses trigger a notable suppression of the calcium level	20 h
CC[C@H](C)[C@H](NC(=O)[C@H](C)NC(=O)CNC(=O)[C@H](Cc1ccccc1)NC(=O)[C@H](CC(N)=O)NC(=O)[C@@H]1CCCN1C(=O)[C@H](CO)NC(=O)[C@H](CO)NC(=O)[C@H](Cc1c[nH]cn1)NC(=O)[C@H](CCCNC(=N)N)NC(=O)[C@H](CC(C)C)NC(=O)[C@H](Cc1ccccc1)NC(=O)[C@H](CCC(=O)O)NC(=O)[C@H](C)NC(=O)[C@H](CC(C)C)NC(=O)[C@H](CCCNC(=N)N)NC(=O)[C@H](CCC(N)=O)NC(=O)[C@@H](NC(=O)[C@H](C)NC(=O)[C@@H]1CSSC[C@H](NC(=O)[C@@H](N)CCCCNC(=O)CC[C@H](NC(=O)CC[C@H](NC(=O)CCCCCCCCCCCCCCCCCCC(=O)O)C(=O)O)C(=O)O)C(=O)N[C@@H](CC(N)=O)C(=O)N[C@@H]([C@@H](C)O)C(=O)N[C@@H](C)C(=O)N[C@@H]([C@@H](C)O)C(=O)N1)[C@@H](C)O)C(=O)N1CCC[C@H]1C(=O)N[C@@H](CO)C(=O)N[C@@H](CO)C(=O)N[C@H](C(=O)N[C@@H](CC(N)=O)C(=O)N[C@H](C(=O)NCC(=O)N1CCC[C@H]1C(=O)N[C@@H](CCC(=O)O)C(=O)N[C@H](C(=O)N[C@@H](Cc1ccc(O)cc1)C(N)=O)[C@@H](C)O)C(C)C)[C@@H](C)O [Example 106] (H-K([γGlu-γGlu-C20 diacid])CNTATCATQRLAEFLRHSSPNFGAIPSSTNVGPETY-NH2; disulfide 2-7; N-terminus assumed)	63%	69%	reduce food intake	49 h	8.67	6%	–	37 h
